What was measured:
human TGR5 receptor = target: T1, human TGR5 receptor (Homo sapiens, UniProt Q8TDU6); experiment: Human TGR5 cAMP production assay (hTGR5-CHO cells, DiscoveRx cAMP XS+ kit); format: cell-based; details: luminescent cAMP assay, read-out: Human TGR5 Lum. cAMP Activity (EC50)
T1 construct: host or cells: CHO-K1 (hTGR5-CHO)
T1 sequence (Q8TDU6 1-330): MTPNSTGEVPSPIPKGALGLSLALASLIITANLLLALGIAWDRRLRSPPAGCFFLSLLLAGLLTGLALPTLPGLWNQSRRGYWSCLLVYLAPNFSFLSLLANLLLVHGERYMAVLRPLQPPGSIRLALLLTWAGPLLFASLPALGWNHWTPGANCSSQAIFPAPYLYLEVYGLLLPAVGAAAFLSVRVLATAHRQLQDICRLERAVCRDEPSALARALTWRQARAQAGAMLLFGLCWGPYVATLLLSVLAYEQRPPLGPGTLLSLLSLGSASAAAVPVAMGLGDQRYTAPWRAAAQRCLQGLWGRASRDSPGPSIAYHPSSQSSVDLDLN
In short: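 CHO-K1 cells stably expressing hTGR5, in PBS with IBMX and cAMP antibody, treated with half-log compound dilutions for 1 h at room temperature. cAMP measured by enzyme-fragment complementation luminescence after overnight detection; EC50 values reported.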

mouse TGR5 receptor = target: T2, mouse TGR5 receptor (Mus musculus, UniProt Q80SS6); experiment: Mouse TGR5 luminescent cAMP production assay (HEK293-EBNA cells, DiscoveRx cAMP XS+ kit); format: cell-based; details: HEK293-EBNA cells overexpressing mouse TGR5, luminescent cAMP assay; read-out: Mouse TGR5 Lum. cAMP Activity (EC50)
T2 construct: host or cells: HEK293-EBNA (293 c18, ATCC CRL10852)
T2 sequence (Q80SS6 1-329): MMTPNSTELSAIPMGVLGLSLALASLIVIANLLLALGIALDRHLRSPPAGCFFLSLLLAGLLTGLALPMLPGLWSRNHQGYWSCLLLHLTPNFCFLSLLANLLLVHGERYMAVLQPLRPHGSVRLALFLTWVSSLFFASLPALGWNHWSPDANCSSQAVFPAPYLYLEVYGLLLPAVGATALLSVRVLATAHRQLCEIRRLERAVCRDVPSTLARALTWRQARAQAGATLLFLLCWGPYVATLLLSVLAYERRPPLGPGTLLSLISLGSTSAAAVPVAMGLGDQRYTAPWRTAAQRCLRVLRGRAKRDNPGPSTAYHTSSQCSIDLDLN
Method: Mouse TGR5 cAMP Production Assay
Compounds of the present invention were evaluated for their ability to induce cAMP production in HEK-EBNA cells overexpressing the mouse TGR5 receptor. Human embryonic kidney cells (HEK293-EBNA) stably expressing mouse TGR5 receptor were established using the following procedure. Specifically, a commercially obtained gene encoding mouse TGR5 (accession number BC116914) from Thermo Scientific (Waltham, Mass.) was cloned into an episomal expression vector. The resulting expression plasmid was then transfected into 293 c18 (ATCC® CRL10852™) cells, which express the Epstein-Barr virus nuclear antigen EBNA1 and can support the replication of episomal vectors. Selection for the plasmid was maintained with Hygromycin B. Cells were cultured and maintained in DMEM (Sigma; cat #6429) supplemented with 10% Fetal Bovine Serum, 1% penicillin/streptomycin, 2 mM L-alanine L-glutamine (GlutaMax), and 250 μg/mL Hygromycin.
We developed two cAMP production assays.
(i) Luminescent cAMP Production Assay
In this first cAMP production assay, the cAMP production was measured using DiscoveRx's cAMP XS+ kit following the manufacturer's recommended protocol. Briefly, HEK293-EBNA cells stably overexpressing mouse TGR5 were harvested using non-enzymatic cell dissociation buffer (Sigma-Aldrich, St. Louis, Mo.), spun down, then resuspended in serum-free DMEM with 500 μM IBMX at a density of 1.25×10^6 cells/mL. 500 μL of cAMP antibody solution was added to 500 μL of cell suspension and incubated at room temperature for 20 min.
Test compounds were serially diluted (half-log dilutions) in DMSO and then further diluted 1:50 in PBS, 10 mM HEPES buffer. 2 μL of serially diluted compound was added to a 384-well low volume plate (Greiner cat #784075) and centrifuged briefly. 2 μl of the cell/cAMP antibody mixture was then added to each compound-containing well and allowed to incubate at room temperature for one (1) hour. Following incubation, the XS+ kits' ED/Lysis/CL Substrate Working Solution was prepared following the manufacturer's recommended protocol and 4 μL was added to each well of the plate. The plate was then incubated for one (1) hour at room temperature. Following incubation, 4 μL of (Enzyme Acceptor) EA reagent was added to the plate and allowed to incubate overnight at room temperature. Luminescent signal was then detected using the Viewlux instrument (PerkinElmer, Waltham, Mass.).
In Table 52, EC50 values for both human and mouse cells were determined according to the TGR5 cAMP assays described above. […]

Row | SMILES | EC50 (human TGR5 receptor) | EC50 (mouse TGR5 receptor)
1 | COc1ccc(-c2cc(N3CCC[C@H]3C(=O)NCCc3ccc(C#N)cc3)nc(C(F)(F)F)n2)cc1 [Compound 148, (S)-N-(4-cyanophenethyl)-1-(6-(4-methoxyphenyl)-2-(trifluoromethyl)pyrimidin-4-yl)pyrrolidine-2-carboxamide] | 100 to 999 nM | < 100 nM
2 | COc1ccc(-c2cc(N3CCC[C@H]3C(=O)NCCc3ccc(C#N)cc3)nc(C(F)(F)F)n2)cc1OC [Compound 149, (S)-N-(4-cyanophenethyl)-1-(6-(3,4-dimethoxyphenyl)-2-(trifluoromethyl)pyrimidin-4-yl)pyrrolidine-2-carboxamide] | 100 to 999 nM | 100 to 999 nM
3 | N#Cc1ccc(CCNC(=O)[C@@H]2CCCN2c2cc(-c3ccc(OC(F)(F)F)cc3)nc(C(F)(F)F)n2)cc1 [Compound 150, (S)-N-(4-cyanophenethyl)-1-(6-(4-(trifluoromethoxy)phenyl)-2-(trifluoromethyl)pyrimidin-4-yl)pyrrolidine-2-carboxamide] | 100 to 999 nM | 100 to 999 nM
4 | CCOc1ccc(-c2cc(N3CCC[C@H]3C(=O)NCCc3ccc(C#N)cc3)nc(C(F)(F)F)n2)cc1 [Compound 151, (S)-N-(4-cyanophenethyl)-1-(6-(4-ethoxyphenyl)-2-(trifluoromethyl)pyrimidin-4-yl)pyrrolidine-2-carboxamide] | 100 to 999 nM | 100 to 999 nM
5 | CS(=O)(=O)Nc1cccc(-c2cc(N3CCC[C@H]3C(=O)NCCc3ccc(C#N)cc3)nc(C(F)(F)F)n2)c1 [Compound 153, (S)-N-(4-cyanophenethyl)-1-(6-(3-(methylsulfonamido)phenyl)-2-(trifluoromethyl)pyrimidin-4-yl)pyrrolidine-2-carboxamide] | 1000 to 30000 nM | 100 to 999 nM
6 | N#Cc1ccc(CCNC(=O)[C@@H]2CCCN2c2cc(-c3ccc(S(=O)(=O)N4CCOCC4)cc3)nc(C(F)(F)F)n2)cc1 [Compound 154, (S)-N-(4-cyanophenethyl)-1-(6-(4-(morpholinosulfonyl)phenyl)-2-(trifluoromethyl)pyrimidin-4-yl)pyrrolidine-2-carboxamide] | 1000 to 30000 nM | 100 to 999 nM
7 | N#Cc1ccc(CCNC(=O)[C@@H]2CCCN2c2cc(-c3ccncc3F)nc(C(F)(F)F)n2)cc1 [Compound 155, (S)-N-(4-cyanophenethyl)-1-(6-(3-fluoropyridin-4-yl)-2-(trifluoromethyl)pyrimidin-4-yl)pyrrolidine-2-carboxamide] | 100 to 999 nM | 100 to 999 nM
8 | Cc1noc(C)c1-c1cc(N2CCC[C@H]2C(=O)NCCc2ccc(C#N)cc2)nc(C(F)(F)F)n1 [Compound 156, (S)-N-(4-cyanophenethyl)-1-(6-(3,5-dimethylisoxazol-4-yl)-2-(trifluoromethyl)pyrimidin-4-yl)pyrrolidine-2-carboxamide] | 1000 to 30000 nM | 1000 to 30000 nM
9 | N#Cc1ccc(CCNC(=O)[C@@H]2CCCN2c2cc(-c3ccc4[nH]ccc4c3)nc(C(F)(F)F)n2)cc1 [Compound 157, (S)-1-(6-(1H-indol-5-yl)-2-(trifluoromethyl)pyrimidin-4-yl)-N-(4-cyanophenethyl)pyrrolidine-2-carboxamide] | 100 to 999 nM | < 100 nM
10 | N#Cc1ccc(CCNC(=O)[C@@H]2CCCN2c2cc(-c3ccsc3)nc(C(F)(F)F)n2)cc1 [Compound 158, (S)-N-(4-cyanophenethyl)-1-(6-(thiophen-3-yl)-2-(trifluoromethyl)pyrimidin-4-yl)pyrrolidine-2-carboxamide] | 100 to 999 nM | < 100 nM
11 | COc1cnccc1-c1cc(N2CCC[C@H]2C(=O)NCCc2ccc(C#N)cc2)nc(C(F)(F)F)n1 [Compound 159, (S)-N-(4-cyanophenethyl)-1-(6-(3-methoxypyridin-4-yl)-2-(trifluoromethyl)pyrimidin-4-yl)pyrrolidine-2-carboxamide] | 1000 to 30000 nM | < 100 nM
12 | COc1cc(-c2cc(N3CCC[C@H]3C(=O)NCCc3ccc(C#N)cc3)nc(C(F)(F)F)n2)ccn1 [Compound 160, (S)-N-(4-cyanophenethyl)-1-(6-(2-methoxypyridin-4-yl)-2-(trifluoromethyl)pyrimidin-4-yl)pyrrolidine-2-carboxamide] | 1000 to 30000 nM | < 100 nM
13 | COc1cc(-c2cc(N3CCC[C@H]3C(=O)NCCc3ccc(C#N)cc3)nc(C(F)(F)F)n2)c(Cl)cn1 [Compound 161, (S)-1-(6-(5-chloro-2-methoxy-pyridin-4-yl)-2-(trifluoromethyl)pyrimidin-4-yl)-N-(4-cyanophenethyl)pyrrolidine-2-carboxamide] | 1000 to 30000 nM | < 100 nM
14 | N#Cc1ccc(CCNC(=O)[C@@H]2CCCN2c2cc(-c3ccccn3)nc(C(F)(F)F)n2)cc1 [Compound 162, (S)-N-(4-cyanophenethyl)-1-(6-(pyridin-2-yl)-2-(trifluoromethyl)pyrimidin-4-yl)pyrrolidine-2-carboxamide] | 100 to 999 nM | 100 to 999 nM
15 | O=C(NCCc1ccc(C(F)(F)F)cc1)[C@@H]1CCCN1c1cc(-c2ccccn2)nc(C(F)(F)F)n1 [Compound 163, (S)-1-(6-(pyridin-2-yl)-2-(trifluoromethyl)pyrimidin-4-yl)-N-(4-(trifluoromethyl)phenethyl)-pyrrolidine-2-carboxamide] | 100 to 999 nM | 1000 to 30000 nM
16 | N#Cc1ccc(CCNC(=O)[C@@H]2CCCN2c2cc(-c3ccoc3)nc(C(F)(F)F)n2)cc1 [Compound 164, (S)-N-(4-cyanophenethyl)-1-(6-(furan-3-yl)-2-(trifluoromethyl)pyrimidin-4-yl)pyrrolidine-2-carboxamide] | 1000 to 30000 nM | 100 to 999 nM
17 | N#Cc1ccc(CCNC(=O)[C@@H]2CCCN2c2cc(-c3cccs3)nc(C(F)(F)F)n2)cc1 [Compound 165, (S)-N-(4-cyanophenthyl)-1-(6-(thiophene-2-yl)-2-(trifluoromethyl)pyrimidin-4-yl)pyrrolidine-2-carboxamide] | 100 to 999 nM | 100 to 999 nM
18 | Cc1ccc(-c2cc(N3CCC[C@H]3C(=O)NCCc3ccc(C#N)cc3)nc(C(F)(F)F)n2)o1 [Compound 166, (S)-N-(4-cyanophenethyl)-1-(6-(5-methylfuran-2-yl)-2-(trifluoromethyl)pyrimidin-4-yl)pyrrolidine-2-carboxamide] | 100 to 999 nM | 100 to 999 nM
19 | N#Cc1ccc(CCNC(=O)[C@@H]2CCCN2c2cc(-c3ccco3)nc(C(F)(F)F)n2)cc1 [Compound 167, (S)-N-(4-cyanophenethyl)-1-(6-(furan-2-yl)-2-(trifluoromethyl)pyrimidin-4-yl)pyrrolidine-2-carboxamide] | 1000 to 30000 nM | 100 to 999 nM
20 | N#Cc1ccc(CCNC(=O)[C@@H]2CCCN2c2cc(-c3ccc(CN4CCOCC4)s3)nc(C(F)(F)F)n2)cc1 [Compound 168, (S)-N-(4-cyanophenethyl)-1-(6-(5-(morpholinomethyl)thiophen-2-yl)-2-(trifluoromethyl)pyrimidin-4-yl)pyrrolidine-2-carboxamide] | 1000 to 30000 nM | 100 to 999 nM

From US10654834B2 (Venenum Biodesign, LLC, priority 2016, dated 2020)
